Data published in PMC7390918, “NVP-CGM097, an HDM2 Inhibitor, Antagonizes ATP-Binding Cassette Subfamily B Member 1-Mediated Drug Resistance” (Frontiers in Oncology, 2020).

Assays:
ABCB1 [1] = target: T1, ABCB1 (Homo sapiens, UniProt P08183); experiment: biochemical
ABCB1 [2] = target: T1, ABCB1

T1 sequence (P08183 whole entry): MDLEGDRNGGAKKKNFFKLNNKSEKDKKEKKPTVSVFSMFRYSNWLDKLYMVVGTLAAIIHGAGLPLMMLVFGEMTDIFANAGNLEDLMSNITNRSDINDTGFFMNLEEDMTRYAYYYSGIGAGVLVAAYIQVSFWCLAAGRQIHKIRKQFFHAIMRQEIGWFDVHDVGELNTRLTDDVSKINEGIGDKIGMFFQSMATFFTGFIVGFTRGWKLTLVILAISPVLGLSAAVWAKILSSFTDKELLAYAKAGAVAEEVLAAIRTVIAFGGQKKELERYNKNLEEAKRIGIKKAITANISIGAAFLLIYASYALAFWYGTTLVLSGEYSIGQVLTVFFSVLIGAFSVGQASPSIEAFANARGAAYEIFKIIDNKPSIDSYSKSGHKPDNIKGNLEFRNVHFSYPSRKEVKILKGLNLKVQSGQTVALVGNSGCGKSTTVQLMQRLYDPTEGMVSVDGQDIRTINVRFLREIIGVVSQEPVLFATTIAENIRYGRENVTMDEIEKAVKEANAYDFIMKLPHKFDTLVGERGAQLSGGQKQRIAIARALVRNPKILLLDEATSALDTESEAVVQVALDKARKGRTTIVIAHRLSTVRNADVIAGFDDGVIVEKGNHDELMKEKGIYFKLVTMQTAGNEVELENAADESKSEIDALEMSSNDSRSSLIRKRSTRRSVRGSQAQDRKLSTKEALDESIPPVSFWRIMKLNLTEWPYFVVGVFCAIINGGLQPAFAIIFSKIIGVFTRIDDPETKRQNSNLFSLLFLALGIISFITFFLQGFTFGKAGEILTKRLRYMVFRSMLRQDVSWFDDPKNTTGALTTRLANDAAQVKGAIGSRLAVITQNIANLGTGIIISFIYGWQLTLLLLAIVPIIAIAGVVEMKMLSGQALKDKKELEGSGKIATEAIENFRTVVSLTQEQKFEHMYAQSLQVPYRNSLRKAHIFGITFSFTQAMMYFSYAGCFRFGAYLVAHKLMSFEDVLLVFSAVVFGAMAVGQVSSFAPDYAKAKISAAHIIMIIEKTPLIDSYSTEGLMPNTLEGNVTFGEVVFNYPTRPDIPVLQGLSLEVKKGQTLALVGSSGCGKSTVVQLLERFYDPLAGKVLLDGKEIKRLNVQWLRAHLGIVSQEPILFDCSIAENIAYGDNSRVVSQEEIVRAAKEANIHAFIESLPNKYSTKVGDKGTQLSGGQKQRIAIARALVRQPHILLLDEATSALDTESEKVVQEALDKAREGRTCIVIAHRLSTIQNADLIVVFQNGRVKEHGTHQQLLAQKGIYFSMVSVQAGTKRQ

| SMILES | EC50 (ABCB1 [1]) [nM] | [3H]-paclitaxel accumulation and efflux in KB-C2 versus parental KB-3-1 cells (ABCB1 [2]) |
| --- | --- | --- |
| COc1cc2c(cc1OC(C)C)[C@H](c1ccc(Cl)cc1)N(c1ccc(N(C)C[C@H]3CC[C@H](N4CCN(C)C(=O)C4)CC3)cc1)C(=O)C2 [NVP-CGM097] | 450 |  |
| CC(=O)O[C@H]1C(=O)[C@@]2(C)[C@H]([C@H](OC(=O)c3ccccc3)[C@]3(O)C[C@H](OC(=O)[C@H](O)[C@@H](NC(=O)c4ccccc4)c4ccccc4)C(C)=C1C3(C)C)[C@]1(OC(C)=O)CO[C@@H]1C[C@@H]2O [paclitaxel] |  | NVP-CGM097 can block the efflux activity of ABCB1-overexpressing cells, therefore, increasing intracellular paclitaxel accumulation |
